Test results as given in patent US12559474B2, “Triazine derivatives having virus replication inhibitory activity and pharmaceutical composition comprising the same” (priority 2021, dated 2026).
Like-named read-outs stand apart in the source and are kept apart here.

Columns and labels:
[1] = target: SARS-CoV-2 3CL protease (Severe acute respiratory syndrome coronavirus 2, UniProt P0DTD1); test: biochemical; details: 50% SARS-CoV-2 3CL protease inhibitory concentration, read-out: IC50
[2] = tested on: SARS-CoV-2; test: microbe, parasite or virus in culture; type: cell-based; details: 50% SARS-CoV-2 infected cell death inhibitory concentration, VeroE6/TMPRSS2 cells, 3 days culture
[3] = Severe acute respiratory syndrome coronavirus 2, VeroE6/TMPRSS2, 72 h, class symbols
[4] = Severe acute respiratory syndrome coronavirus 2, VeroE6/TMPRSS2, 72 h, CellTiter-Glo 2.0

Structure (SMILES)	IC50 ([1]; given as class symbols)	EC50 [2, 3]	IC50 ([1]; RapidFire MS)	EC50 [2, 4]	EC50 ([2]; class symbols)
Cc1cncc(-n2c(=O)nc(Nc3cc4oc(C)nc4cc3F)n(Cc3ccc(F)c(C#N)c3)c2=O)c1 [II-0107]	< 100 nM	1000 to 10000 nM			
Cc1cncc(-n2c(=O)nc(Nc3cc4oc(C)nc4cc3Cl)n(Cc3ccc(F)c(C#N)c3)c2=O)c1 [II-0108]	< 100 nM	1000 to 10000 nM			
Cn1cc2cc(Nc3nc(=O)n(-c4cncc(Cl)c4)c(=O)n3Cc3cc(F)c(F)c(Cl)c3)ccc2n1 [II-0109]			40 nM	798 nM	
Cc1cncc(-n2c(=O)nc(Nc3cc4oc(C)nc4cc3C)n(Cc3ccc(F)c(C#N)c3)c2=O)c1 [II-0110]	< 100 nM	< 1000 nM			
Cc1cncc(-n2c(=O)nc(Nc3ccc4nn(C)cc4c3)n(Cc3cc(F)c(F)cc3F)c2=O)c1 [II-0111]			78 nM	1910 nM	
Cn1cnc(Cn2c(=O)nc(Nc3cc4cn(CC(F)F)nc4cc3F)n(Cc3cc(F)c(F)c(F)c3)c2=O)n1 [II-0112]	< 100 nM	1000 to 10000 nM			
Cc1cncc(-n2c(=O)nc(Nc3cc4c(cc3Cl)OC(C)C4)n(Cc3ccc(F)c(C#N)c3)c2=O)c1 (stereo not shown) [II-0114]	< 100 nM	< 1000 nM			
Cc1cncc(-n2c(=O)nc(Nc3cc4cn(C)nc4cc3F)n(Cc3cc(C#N)ccc3C)c2=O)c1 [II-0115]	< 100 nM	< 1000 nM			
Cc1cncc(-n2c(=O)nc(Nc3cc4c(cc3Cl)OC(C)C4)n(Cc3ccc(F)c(C#N)c3)c2=O)c1 (stereo not shown) [II-0117]	< 100 nM				< 1000 nM
CCn1cc2cc(Nc3nc(=O)n(-c4cncc(C)c4)c(=O)n3Cc3ccc(F)c(C#N)c3)c(Cl)cc2n1 [II-0118]			4.5 nM	121 nM	
Cc1cncc(-n2c(=O)nc(Nc3cc4cn(C)nc4cc3Cl)n(Cc3cc(F)c(F)c(Cl)c3)c2=O)c1 [II-0119]			8.9 nM	183 nM	
Cn1cc2cc(Nc3nc(=O)n(-c4cncc(Cl)c4)c(=O)n3Cc3ccc(F)c(C#N)c3)c(Cl)cc2n1 [II-0120]			9 nM	127 nM	
Cc1cncc(-n2c(=O)nc(Nc3cc4c(cc3Cl)OC(C)C4)n(Cc3ccc(F)c(C#N)c3)c2=O)c1 (stereo not shown) [II-0121]	< 100 nM				< 1000 nM
COc1cc(C)c(Nc2nc(=O)n(-c3cncc(C)c3)c(=O)n2Cc2ccc(F)c(C#N)c2)cn1 [II-0122]	< 100 nM	1000 to 10000 nM			
Cc1cncc(-n2c(=O)nc(Nc3cnc(OCC(F)F)cc3C)n(Cc3ccc(F)c(C#N)c3)c2=O)c1 [II-0123]	< 100 nM	1000 to 10000 nM			
Cc1cncc(-n2c(=O)nc(Nc3ccc4nn(C)cc4c3)n(Cc3cc(C#N)ccc3C)c2=O)c1 [II-0125]			4.8 nM	220 nM	
CNc1nc2cc(Cl)c(Nc3nc(=O)n(-c4cncc(Cl)c4)c(=O)n3Cc3cc(C#N)c(F)cn3)cc2s1 [II-0126]	< 100 nM	1000 to 10000 nM			
CCn1cc2cc(Nc3nc(=O)n(-c4cncc(Cl)c4)c(=O)n3Cc3cc(C#N)c(F)cn3)c(Cl)cc2n1 [II-0127]	< 100 nM	1000 to 10000 nM			
N#Cc1cc(Cn2c(Nc3ccc4nc(NCC(F)F)sc4c3)nc(=O)n(-c3cncc(Cl)c3)c2=O)ccc1F [II-0129]	< 100 nM	1000 to 10000 nM			
Cc1cncc(-n2c(=O)nc(Nc3cc4cn(C)nc4cc3Cl)n(Cc3cc(F)c(F)c(C#N)c3)c2=O)c1 [II-0130]			1.9 nM	95 nM	
Cc1cncc(-n2c(=O)nc(Nc3cc4c(cc3Cl)OCC4)n(Cc3cc(F)c(F)c(C#N)c3)c2=O)c1 [II-0131]	< 100 nM	< 1000 nM			
Cn1cnc(Cn2c(=O)nc(Nc3cc4cn(CC(=O)N5CCOCC5)nc4cc3Cl)n(Cc3cc(Cl)c(F)cc3F)c2=O)n1 [II-0132]			2.5 nM	49800 nM	
Cc1cncc(-n2c(=O)nc(Nc3cc4cn(CCO)nc4cc3Cl)n(Cc3ccc(F)c(C#N)c3)c2=O)c1 [II-0140]	< 100 nM	1000 to 10000 nM			
Cc1cncc(-n2c(=O)nc(Nc3cc4c(cc3Cl)OCCC4)n(Cc3ccc(F)c(C#N)c3)c2=O)c1 [II-0144]	< 100 nM	< 1000 nM			
Cn1cc2cc(Nc3nc(=O)n(-c4cncc5ccccc45)c(=O)n3Cc3cc(F)c(F)c(C#N)c3)ccc2n1 [II-0154]	< 100 nM	< 1000 nM			

Structure (SMILES)	IC50 ([1]; given as class symbols)	EC50 [2, 3]	IC50 ([1]; RapidFire MS)	EC50 [2, 4]	EC50 ([2]; class symbols)
Cc1cncc(-n2c(=O)nc(Nc3cc4c(cc3Cl)OCC4)n(Cc3ccc(F)c(C#N)c3)c2=O)c1 [II-0156]	< 100 nM	< 1000 nM			
Cc1cncc(-n2c(=O)nc(Nc3cc4cn(C5COC5)nc4cc3Cl)n(Cc3ccc(F)c(C#N)c3)c2=O)c1 [II-0158]	< 100 nM	1000 to 10000 nM			
N#Cc1cc(Cn2c(Nc3ccc4c(c3)CCCO4)nc(=O)n(-c3cncc4ccccc34)c2=O)ccc1F [II-0159]	< 100 nM	< 1000 nM			
Cc1cc2c(cc1Nc1nc(=O)n(-c3cncc4ccccc34)c(=O)n1Cc1ccc(F)c(C#N)c1)CCO2 [II-0160]	< 100 nM	< 1000 nM			
Cc1cncc(-n2c(=O)nc(Nc3cc4cn(C)nc4cc3Cl)n(Cc3cc(F)cc(C#N)c3)c2=O)c1 [II-0161]	< 100 nM	< 1000 nM			
COc1ccc(Nc2nc(=O)n(-c3cncc(C)c3)c(=O)n2Cc2ccc(F)c(C#N)c2)c(C)c1 [II-0162]	< 100 nM	< 1000 nM			
Cn1cnc(Cn2c(=O)nc(Nc3cc4cn(CC(F)F)nc4cc3Cl)n(Cc3cc(F)c(F)cc3F)c2=O)n1 [II-0163]			8.8 nM	342 nM	
Cc1cncc(-n2c(=O)nc(Nc3cc4cn(C)nc4cc3Cl)n(Cc3cc(F)c(F)c(F)c3F)c2=O)c1 [II-0164]			9 nM	195 nM	
COc1ccc(Nc2nc(=O)n(-c3cncc(C)c3)c(=O)n2Cc2ccc(F)c(C#N)c2)c(Cl)c1 [II-0165]	< 100 nM	< 1000 nM			
Cc1cncc(-n2c(=O)nc(Nc3ccc4c(c3)CCCO4)n(Cc3ccc(F)c(C#N)c3)c2=O)c1 [II-0166]	< 100 nM	< 1000 nM			
Cc1cncc(-n2c(=O)nc(Nc3cc4cn(C)nc4cc3Br)n(Cc3ccc(F)c(C#N)c3)c2=O)c1 [II-0167]	< 100 nM	< 1000 nM			
CC(C)n1cc2cc(Nc3nc(=O)n(-c4cncc5ccccc45)c(=O)n3Cc3ccc(F)c(C#N)c3)ccc2n1 [II-0168]	< 100 nM	< 1000 nM			
COc1ccc(Nc2nc(=O)n(-c3cncc4ccccc34)c(=O)n2Cc2ccc(F)c(C#N)c2)c(C)c1 [II-0169]	< 100 nM	< 1000 nM			
Cc1cncc(-n2c(=O)nc(Nc3cc4cn(C)nc4cc3Cl)n(Cc3cccc(F)c3C)c2=O)c1 [II-0171]	< 100 nM	< 1000 nM			
Cc1cncc(-n2c(=O)nc(Nc3cc4c(cc3C)OCC4)n(Cc3ccc(F)c(C#N)c3)c2=O)c1 [II-0172]	< 100 nM	< 1000 nM			
Cc1cncc(-n2c(=O)nc(Nc3ccc4nn(C)cc4c3)n(Cc3ccc(F)c(C#N)c3)c2=O)c1 [II-0173]			15 nM	272 nM	
COc1ccc(Nc2nc(=O)n(-c3cncc(C)c3)c(=O)n2Cc2ccc(F)c(C#N)c2)c(Br)c1 [II-0174]	< 100 nM	< 1000 nM			
Cc1cncc(-n2c(=O)nc(Nc3cc4cn(C)nc4cc3Cl)n(Cc3ccc(F)c(F)c3F)c2=O)c1 [II-0175]	< 100 nM	< 1000 nM			
Cc1nc2ccc(Nc3nc(=O)n(-c4cncc5ccccc45)c(=O)n3Cc3ccc(F)c(C#N)c3)cc2o1 [II-0176]	< 100 nM	< 1000 nM			
Cc1cncc(-n2c(=O)nc(Nc3cc4cn(C)nc4cc3Cl)n(Cc3cc(F)cc(Cl)c3)c2=O)c1 [II-0177]	< 100 nM	< 1000 nM			
COc1ccc(Nc2nc(=O)n(-c3cncc4ccccc34)c(=O)n2Cc2ccc(F)c(C#N)c2)c(F)c1 [II-0178]	< 100 nM	< 1000 nM			
Cn1cnc(Cn2c(=O)nc(Nc3cc4cn(C)nc4cc3Cl)n(Cc3ccc(F)c(Br)c3)c2=O)n1 [II-0179]	< 100 nM	1000 to 10000 nM			
COc1ccc(Nc2nc(=O)n(-c3cncc(C)c3)c(=O)n2Cc2ccc(F)c(C#N)c2)c(F)c1 [II-0180]	< 100 nM	< 1000 nM			
Cc1cncc(-n2c(=O)nc(Nc3cc4cn(C)nc4cc3Cl)n(Cc3cc(C#N)ccc3Cc3cccc(Cl)c3)c2=O)c1 [II-0181]	< 100 nM	< 1000 nM			
COc1ccc(Nc2nc(=O)n(-c3cncc(C)c3)c(=O)n2Cc2ccc(F)c(C#N)c2)cc1 [II-0182]	< 100 nM	< 1000 nM			
